Three compounds from ChEMBL document CHEMBL3352657 (J Med Chem, 2014) can be followed below.

The IC50 is the midpoint of a concentration-inhibition curve. A word on the Ki: it is a dissociation constant, usually derived from enzyme kinetics or from competition with a known ligand. As a reminder, the EC50 is the concentration giving half of the maximal effect.

Active and inactive are the calls of the source. No cut-off for these calls is given here.

Assay [1] has as its target T1, Neurotensin receptor type 2 (Rattus norvegicus, UniProt Q63384).
T1 sequence (Q63384 whole entry): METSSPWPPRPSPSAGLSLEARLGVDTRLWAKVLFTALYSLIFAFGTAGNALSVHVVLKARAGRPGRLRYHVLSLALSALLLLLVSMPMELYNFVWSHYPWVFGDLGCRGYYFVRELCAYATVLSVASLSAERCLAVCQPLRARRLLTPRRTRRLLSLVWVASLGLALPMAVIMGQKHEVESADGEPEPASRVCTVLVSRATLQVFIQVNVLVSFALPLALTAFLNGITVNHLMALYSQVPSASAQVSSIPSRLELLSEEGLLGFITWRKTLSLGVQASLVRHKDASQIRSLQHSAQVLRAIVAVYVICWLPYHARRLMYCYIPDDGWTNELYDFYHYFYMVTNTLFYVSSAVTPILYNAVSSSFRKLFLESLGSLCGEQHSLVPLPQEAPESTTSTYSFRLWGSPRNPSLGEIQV
Put plainly: Antagonist activity at rat NTS2 receptor expressed in CHO-K1 cells assessed as inhibition of SR142948a-induced calcium mobilization by FLIPR assay. It is filed as functional, cell-based.

Assay [2] has as its target Neurotensin receptor type 1 (Rattus norvegicus, UniProt P20789). Briefly: Displacement of [125I]neurotensin from rat NTS1 receptor expressed in CHO-K1 cells by competitive binding assay. It is filed as cell-based. On the technique in general: Loss of bound radioactivity is the signal in a displacement assay; it reports binding, not function.
In assay [3] the target is T1, Neurotensin receptor type 2. Briefly: Displacement of [125I]neurotensin from rat NTS2 receptor expressed in CHO-K1 cells by competitive binding assay. The format is cell-based.
Assay [4] shares this target. Briefly: Agonist activity at rat NTS2 receptor expressed in CHO-K1 cells assessed as calcium mobilization by FLIPR assay. It is filed as functional, cell-based.
Assay [5] addresses Neurotensin receptor type 1 (Rattus norvegicus) (UniProt P20789). Put plainly: Antagonist activity at rat NTS1 receptor expressed in CHO-K1 cells assessed as inhibition of […]-induced calcium mobilization by FLIPR assay. The format is functional, cell-based. Background: Calcium flux is commonly read through the fluorescence of an indicator in the cells.
The target is the same in assay [6]. Put plainly: Agonist activity at rat NTS1 receptor expressed in CHO-K1 cells assessed as calcium mobilization by FLIPR assay. The format is functional, cell-based.

Neurotensin receptor type 1, sequence (P20789 whole entry): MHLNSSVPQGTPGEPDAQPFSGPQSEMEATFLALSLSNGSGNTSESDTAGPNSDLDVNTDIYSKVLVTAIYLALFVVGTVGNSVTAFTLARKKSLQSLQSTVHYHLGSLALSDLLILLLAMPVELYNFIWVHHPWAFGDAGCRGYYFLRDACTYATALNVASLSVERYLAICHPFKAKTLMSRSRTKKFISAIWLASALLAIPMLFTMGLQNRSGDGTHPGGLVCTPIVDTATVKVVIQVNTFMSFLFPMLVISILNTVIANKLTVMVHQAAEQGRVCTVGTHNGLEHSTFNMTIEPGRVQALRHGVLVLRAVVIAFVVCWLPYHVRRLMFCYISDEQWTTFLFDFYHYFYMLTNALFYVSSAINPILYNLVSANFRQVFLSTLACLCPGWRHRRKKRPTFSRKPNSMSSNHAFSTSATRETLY
Neurotensin receptor type 1 (Rattus norvegicus), sequence (P20789 whole entry): as above

In the case of `Cc1ccc(S(=O)(=O)Nc2ccc3c(c2)c(C(=O)C(F)(F)F)cn3CC(=O)N[C@@H](CC(C)C)C(=O)O)cc1`, in assay [1], the IC50 is 38 nM. Moreover, the Ki in assay [2] is > 30000 nM; in assay [3], 202 nM. Moreover, the EC50 result in assay [4] (cho-k1) is on record as “Not Active”.

For the compound `COc1cccc(OC)c1-c1cc(C(=O)NC2(C(=O)O)C3CC4CC(C3)CC2C4)nn1-c1ccc(C(=O)N(C)CCCN(C)C)cc1C(C)C` (stereo not drawn), the Ki in assay [2] turned out to be 1.4 nM; in assay [3], 5.8 nM. For the same compound, the EC50 in assay [4] (read-out: EC50) amounted to 22 nM.

In the case of `Cc1ccc(S(=O)(=O)Nc2ccc3c(ccn3CC(=O)N[C@@H](CC(C)C)C(=O)O)c2)cc1`, in assay [1], the IC50 was 3320 nM. Besides, the figures for the Ki in assay [2] and in assay [3] were > 30000 nM and 1500 nM, respectively. For the same compound, the inhibition result in assay [5] is “inactive”. Further, in assay [4] (cho-k1), the EC50 result is “Not Active”. Also, the outcome in assay [6] was inactive.
